Data taken from patent US20190201586A1, “Three-Dimensional Tissue Matrix Scaffold System” (Washington State University, priority 2016, published 2019).

Key:
Format in all cases: cell-based
T47D breast cancer cells = assay: CCK-8 proliferation assay and drug screening, T47D cells in 2D culture and on 3D scaffolds; details: 1 μM; for cell proliferation after administration of the drug: on day 7, 9, 11, 13, 3D and 2D cultures; for response of the cancer cells to the drug in cell-laden TMS cultures compared to the other 3D culture conditions: TMS vs collagen, IrECM, PLGA scaffolds
Description: (§1) Proliferation assay in 3D culture. The proliferation of the cells grown on the different scaffolds or treated with the different drugs was measured using the CCK-8 reagent at the time points indicated. Briefly, the cell-laden scaffolds (triplicates for each condition) were cultured in 96-well plates. CCK-8 solution was added at a 1:10 dilution into the cultures. The colorimetric absorbance of the supernatants of the cultures that reflects the cell proliferation rate was measured at 490 nm using a Synergy 2 microplate reader (BioTek) after 4 hours of incubation (37° C., 5% CO2). Error bars represent standard deviations (s.d.) of the means of three independent experiments.
(§2) Drug screening. The T47D and BT474 breast cancer cells were used to test the efficacies of the two anticancer drugs, HT and Taxol, in 2D and 3D cultures. 2×10^3 cells/well and 1×10^5 cells/scaffold (in triplicates) were seeded on 2D surface and the 3D scaffolds, respectively, and cultured in 96-well plates for 7 days. The drugs at the final concentration of 1 μM were administered separately to the cultures on day 7, 9, 11, 13 of culture for 24 hours, and cell survival as well as proliferation status assessed on day 1, 8, 10, 12, 14, 21 using the CCK-8 reagent and the Live/Dead assay, respectively. After the measurement on day 14, a seven-day recovering period was included to evaluate the post-treatment proliferation potential of the cells. Three independent experiments were performed for statistical significance.

[1] = test system: BT474 breast cancer cells; assay: CCK-8 proliferation assay and drug screening, BT474 cells in 2D culture and on 3D scaffolds; details: 1 μM; for cell proliferation after administration of the drug: on day 7, 9, 11, 13, 3D and 2D cultures; for response of the cancer cells to the drug in cell-laden TMS cultures compared to the other 3D culture conditions: TMS vs collagen, IrECM, PLGA scaffolds
Description: as §1, §2

T47D cells = assay: Live/Dead Cell staining of scaffold cultures after drug treatment; details: T47D-laden DBT-TMS and PLGA scaffolds; 1 μM
Description: Live/Dead Cell staining. The survival of the cells grown on the 3D scaffolds were assessed using the Live/Dead Cell Staining kit. The cell-carrying scaffolds at different time points or under different treatment conditions were collected and manually sectioned at 250-500 μm of thickness. The sections were washed twice with 1×PBS (37° C.), incubated in the staining solution (2 μM of calcein-AM and 4 μM of EhtD-III in 1×PBS) at RT for 45 minutes, and imaged using fluorescence microscopy. Calcein-AM stains live cells green (under EGFP filter), while EthD-III stains dead cells red (under Texas Red filter).
as §2, with “Three independent experiments were performed for statistical significance.” left out

| Structure (SMILES) | cell proliferation after administration of the drug (T47D breast cancer cells) | response of the cancer cells to the drug in cell-laden TMS cultures compared to the other 3D culture conditions (T47D breast cancer cells) | cell proliferation after administration of the drug [1] | response of the cancer cells to the drug in cell-laden TMS cultures compared to the other 3D culture conditions [1] | cell proliferation and clustering over the period of treatment (Live/Dead staining) (T47D cells) |
| --- | --- | --- | --- | --- | --- |
| CC(=O)O[C@H]1C(=O)[C@@]2(C)[C@H]([C@H](OC(=O)c3ccccc3)[C@]3(O)C[C@H](OC(=O)[C@H](O)[C@@H](NC(=O)c4ccccc4)c4ccccc4)C(C)=C1C3(C)C)[C@]1(OC(C)=O)CO[C@@H]1C[C@@H]2O [Taxol, Paclitaxel] | time-dependently inhibited cell proliferation | lower response | time-dependently inhibited cell proliferation | lower response | markedly attenuated |
| CC/C(=C(\c1ccc(O)cc1)c1ccc(OCCN(C)C)cc1)c1ccccc1 [HT, (Z)-4-Hydroxytamoxifen] | time-dependently inhibited cell proliferation | lower response | time-dependently inhibited cell proliferation | lower response | markedly attenuated |
